Experimental findings from ChEMBL document CHEMBL5500389, “Discovery of the Selective and Orally Available Galectin-1 Inhibitor GB1908 as a Potential Treatment for Lung Cancer” (J Med Chem, 2024) are described below.

In series [1] the target is T1, Galectin-1 (Homo sapiens, UniProt P09382). The series is described as follows: Binding affinity to human galectin-1 assessed as dissociation constant by fluorescein probe based fluorescence polarization assay. For orientation: In fluorescence polarisation assays a small probe gives low polarisation when free and higher when bound to something large.
A short description of series [2]: Apparent permeability across apical to basal side in human Caco-2 cells at 10 uM incubated for 90 mins by LC-MS/MS analysis.
Series [3] is described as follows: Apparent permeability across basal to apical side in human Caco-2 cells at 10 uM incubated for 90 mins by LC-MS/MS analysis. Background: Caco-2 monolayers are a common model of the intestinal barrier.
Series [4] in a line: Efflux ratio of apparent permeability across apical to basal side over basal to apical side in human Caco-2 cells at 10 uM incubated for 90 mins by LC-MS/MS analysis.
Another series in a line: physchem. To be noted: octanol/potassium phosphate buffer, pH 7.4.
Series [5] addresses T1, Galectin-1. Kind of series: Binding affinity to human galectin-1 assessed as dissociation constant by competitive fluorescence polarization assay.
Series [6] deals with Galectin-3 (Homo sapiens, UniProt P17931). The series is described as follows: Binding affinity to human galectin-3 assessed as dissociation constant by competitive fluorescence polarization assay.
Series [7] concerns the target Galectin-3 (Mus musculus, UniProt P16110). Kind of series: Binding affinity to mouse galectin-3 assessed as dissociation constant by competitive fluorescence polarization assay.

T1 sequence (P09382 whole entry): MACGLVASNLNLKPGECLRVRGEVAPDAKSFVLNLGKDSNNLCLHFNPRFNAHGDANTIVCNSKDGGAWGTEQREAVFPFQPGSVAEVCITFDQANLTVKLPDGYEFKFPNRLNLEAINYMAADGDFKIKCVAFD
Sequence of Galectin-3 (Mus musculus, UniProt P16110) (P16110 whole entry): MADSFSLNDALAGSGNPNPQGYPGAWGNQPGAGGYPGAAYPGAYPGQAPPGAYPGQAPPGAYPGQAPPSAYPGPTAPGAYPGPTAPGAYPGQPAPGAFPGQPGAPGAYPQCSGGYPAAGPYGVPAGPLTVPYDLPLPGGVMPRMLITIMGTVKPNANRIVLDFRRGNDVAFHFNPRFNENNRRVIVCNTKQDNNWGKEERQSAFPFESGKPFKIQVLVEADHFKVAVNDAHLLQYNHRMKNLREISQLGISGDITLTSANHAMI
Sequence of Galectin-3 (Homo sapiens, UniProt P17931) (P17931 whole entry): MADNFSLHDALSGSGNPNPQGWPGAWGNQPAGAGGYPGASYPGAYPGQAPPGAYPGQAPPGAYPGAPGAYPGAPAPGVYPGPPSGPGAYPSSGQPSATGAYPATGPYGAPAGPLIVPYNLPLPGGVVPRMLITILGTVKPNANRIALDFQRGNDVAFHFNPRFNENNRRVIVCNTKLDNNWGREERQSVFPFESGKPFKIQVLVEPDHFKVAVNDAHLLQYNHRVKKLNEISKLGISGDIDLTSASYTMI

Usually Kd stands for a measure of binding affinity in units of concentration. In general, Papp A→B refers to how fast a substance crosses the layer from the apical side. Broadly, the Papp B→A is how fast a substance crosses the layer from the basolateral side. Usually efflux ratio stands for the permeability from basolateral to apical divided by that in the opposite direction, in the common usage. What is called logD is lipophilicity at a set pH, counting ionised and neutral species. Take `CNc1nc(-c2cn([C@@H]3[C@@H](O)[C@@H](Sc4cc(Cl)c(F)c(Cl)c4)O[C@H](CO)[C@@H]3O)nn2)cs1`: the Kd at Galectin-1 [1] is 1360 nM. The Papp A→B at 1.5 h, 10 µM in series [2] is below 0.24 ×10⁻⁶ cm/s. Further, the Papp B→A at 1.5 h, 10 µM in series [3] was 46 ×10⁻⁶ cm/s. Moreover, the efflux ratio at 1.5 h, 10 µM in series [4] was above 192. This molecule registered a logD at 1 h in “physchem” of 2.9.

As for `OC[C@H]1O[C@H](Sc2cc(Cl)c(F)c(Cl)c2)[C@H](O)[C@@H](n2cc(-c3nccs3)nn2)[C@H]1O`, in series [4], the efflux ratio at 1.5 h, 10 µM was 2.8.

For the molecule `OC[C@H]1O[C@H](Sc2cc(Cl)c(F)c(Cl)c2)[C@H](O)[C@@H](n2cc(-c3cscn3)nn2)[C@H]1O`, the Papp A→B at 1.5 h, 10 µM in series [2] is 8.8 ×10⁻⁶ cm/s. Moreover, in series [4], the efflux ratio at 1.5 h, 10 µM was 3.4.

For `Nc1csc(-c2cn([C@@H]3[C@@H](O)[C@@H](Sc4cc(Cl)c(F)c(Cl)c4)O[C@H](CO)[C@@H]3O)nn2)n1`, at Galectin-1 [1], the Kd was 620 nM. The apparent permeability from apical to basolateral (Papp A→B) at 1.5 h, 10 µM in series [2] came out at 3.1 ×10⁻⁶ cm/s. Also, in series [3], the apparent permeability from basolateral to apical (Papp B→A) at 1.5 h, 10 µM is 42 ×10⁻⁶ cm/s. Moreover, in series [4], the efflux ratio at 1.5 h, 10 µM was 14. This molecule also registered a logD at 1 h in “physchem” of 2.5.

Regarding `OC[C@H]1O[C@@H](S[C@@H]2O[C@H](CO)[C@H](O)[C@H](n3cc(-c4csc(O)n4)nn3)[C@H]2O)[C@H](O)[C@@H](n2cc(-c3cc(F)c(F)c(F)c3)nn2)[C@H]1O`, the values for the Kd on Galectin-1 [5], at Galectin-3 [6] and on Galectin-3 [7] were 4 nM, 1 nM and 34 nM, respectively.

For the molecule `OC[C@H]1O[C@H](Sc2cc(Cl)c(F)c(Cl)c2)[C@H](O)[C@@H](n2cc(-c3csc(O)n3)nn2)[C@H]1O`, the Kd at Galectin-1 [1] amounted to 80 nM. In series [2], the Papp A→B at 1.5 h, 10 µM turned out to be 0.3 ×10⁻⁶ cm/s. Besides, in series [3], the basolateral-to-apical permeability (Papp B→A) at 1.5 h, 10 µM was found to be 35 ×10⁻⁶ cm/s. The efflux ratio at 1.5 h, 10 µM in series [4] was found to be 117. Moreover, the logD at 1 h in the series “physchem” came out at 2.8.

With `CN(C)c1nc(-c2cn([C@@H]3[C@@H](O)[C@@H](Sc4cc(Cl)c(F)c(Cl)c4)O[C@H](CO)[C@@H]3O)nn2)cs1`, at Galectin-1 [1], the Kd worked out at 3430 nM. Also, in series [2], the Papp A→B at 1.5 h, 10 µM came to 0.6 ×10⁻⁶ cm/s. Also, the Papp B→A at 1.5 h, 10 µM in series [3] came to 52 ×10⁻⁶ cm/s. Further, the efflux ratio at 1.5 h, 10 µM in series [4] came out at 87. The logD at 1 h in “physchem” turned out to be 3.8.
